Results from paper PMC5740082, “Identification of a CARM1 Inhibitor with Potent In Vitro and In Vivo Activity in Preclinical Models of Multiple Myeloma” (Scientific Reports, 2017).
Values joined by “and” are separate entries in the source; they are usually repeats but may differ in a detail not shown here. Identical values can stand only once.

Legend:
[1] = Pharmacokinetic study in rat
Protocol: An additional group of rats, cannulated in both the jugular and portal veins were dosed by oral gavage (10 mg/kg, in 0.5% methylcellulose in water). Approximately 110 μL of blood was taken from the animals by retro-orbital bleeding (mouse), tail vein (rat i.v.) or both jugular and portal vein sampling (rat p.o.) at pre-specified time intervals. The 2 h samples were split for parallel determination of blood and plasma concentration (ex vivo ratio). Blood samples were collected into K2-EDTA tubes and centrifuged to obtain plasma.

[2] = molecular target: T1, CYP2D6 (Homo sapiens, UniProt P10635); assay: Cytochrome P450 inhibition; format: in vitro ADME; details: human liver microsomes, tested up to 25 µM
T1 construct: with human liver microsomes; from tissue; host or cells: human liver microsomes
Protocol: (§1) Hepatocyte stability, plasma protein binding and cytochrome P450 assays were performed using standard procedures. Details can be found in Supplementary Methods. […]
(§2) Cytochrome P450 Inhibition (IC50 Determination) […]
(§3) with human liver microsomes (0.1 to 1 mg/m L) and NADPH (1 mM) in the presence of specific probe substrates at 37°C. Probe substrates and incubation times were: phenacetin (30 µM, 5 min), tolbutamide (120 µM, 60 min), mephenytoi n (25 µM, 60 min) and dextromethorphan (5 µM, 5 min) for CYP1A2, CYP2C9, CYP2C19 and CYP2D6, respectivel y. For CYP3A4, midazolam (2.5 µM, 5 min) andtestosterone (50 µM, 5 min) were used as probe substrates. […]
(§4) isoform. All reactions were terminated b y addition of methanol prior to cent rifugation and addition of internal standard to the supernatants. For CYP2C9, CYP2C19, CYP2D6 and CYP3A4 (midazolam) incubations, the supernat ants were combined for the simultaneous anal ysis o f 4-h ydrox ytol butamide, 4- hydrox ymephenytoin, dextrorphan and 1-hydrox ymidazolam b y LC-MS/MS. For the CYP1A2 and CYP3A4 (testosterone) incubations, the supernatants were anal yzed individuall y for acetaminophen and 6ß-h ydrox ytestosterone b y LC -MS/MS. A decrease i n the formation of the metabolites compared to vehicle control was used to calculate an IC50 value.

[3] = molecular target: T2, CYP2C9 (Homo sapiens, UniProt P11712); assay: Cytochrome P450 inhibition; format: in vitro ADME; details: human liver microsomes, tested up to 25 µM
T2 construct: with human liver microsomes; from tissue; host or cells: human liver microsomes
Protocol: as §1, §2, §3, §4

[4] = molecular target: T3, CYP3A4 (Homo sapiens, UniProt P08684); assay: Cytochrome P450 inhibition; format: in vitro ADME; details: human liver microsomes, tested up to 25 µM
T3 construct: with human liver microsomes; from tissue; host or cells: human liver microsomes
Protocol: as §1, §2, §3, §4

[5] = molecular target: T4, CYP1A2 (Homo sapiens, UniProt P05177); assay: Cytochrome P450 inhibition; format: in vitro ADME; details: human liver microsomes, tested up to 25 µM
T4 construct: with human liver microsomes; from tissue; host or cells: human liver microsomes
Protocol: as §1, §2, §3, §4

[6] = test system: LNCAP; assay: Long term proliferation assay (15 days); format: cell-based; details: Homo sapiens, 360 h, read-out: EZM2302 IC50 (absolute, long term proliferation), PROSTATE, day 15
Protocol: (§5) Long term (14–15 day) cell proliferation assays were performed using the method previously described with adjustments to initial seeding densities depending on growth characteristics for each cell line[54],[55]. For 6 day proliferation studies, see Supplementary Methods.
(§6) Supplementary Table S2. Long term proliferation IC50 values of cell lines dosed with EZM2302. A panel of cell lines was treated with EZM2302fo r 15 da ys in a long term proliferation assa y. Abs olute IC 50 values were calculated in GraphPad Pri sm (non -linear regression anal ysis, top of the curves were fixed to 100%) for each line at d ay 15 .

[7] = test system: BT20; assay: Long term proliferation assay (15 days); format: cell-based; details: Homo sapiens, BT-20, 360 h, read-out: EZM2302 IC50 (absolute, long term proliferation); BT20, BREAST, day 15
Protocol: as §5, §6

[8] = test system: HT29; assay: Long term proliferation assay (15 days); format: cell-based; details: Homo sapiens, HT-29, 360 h, read-out: EZM2302 IC50 (absolute, long term proliferation); HT29, LARGE, day 15
Protocol: as §5, §6

[9] = test system: BT474; assay: Long term proliferation assay (15 days); format: cell-based; details: Homo sapiens, BT-474, 360 h, read-out: EZM2302 IC50 (absolute, long term proliferation); BT474, BREAST, day 15
Protocol: as §5, §6

[10] = test system: PC3; assay: Long term proliferation assay (15 days); format: cell-based; details: Homo sapiens, PC-3, 360 h, read-out: EZM2302 IC50 (absolute, long term proliferation); PC3, PROSTATE, day 15
Protocol: as §5, §6

[11] = test system: VCAP; assay: Long term proliferation assay (15 days); format: cell-based; details: Homo sapiens, 360 h, read-out: EZM2302 IC50 (absolute, long term proliferation), PROSTATE, day 15
Protocol: as §5, §6

[12] = test system: MCF7; assay: Long term proliferation assay (15 days); format: cell-based; details: Homo sapiens, 360 h, read-out: EZM2302 IC50 (absolute, long term proliferation); MCF7, BREAST, day 15
Protocol: as §5, §6

[13] = test system: HCT116; assay: Long term proliferation assay (15 days); format: cell-based; details: Homo sapiens, HCT-116, 360 h, read-out: EZM2302 IC50 (absolute, long term proliferation); HCT116, LARGE, day 15
Protocol: as §5, §6

[14] = test system: RPMI-8226 xenograft; assay: RPMI-8226 multiple myeloma xenograft study; format: in vivo, CB-17 SCID mice
Protocol: For the in vivo efficacy studies, there were 8 mice per dose group and each mouse was inoculated subcutaneously at the right flank. All cells were suspended in a 0.2 mL mixture of base media and Matrigel at 1:1 for tumor development. RPMI-8226 cells were inoculated at 5 × 10^6 cells/mouse and treatment began when the mean tumor sizes reached 120 mm^3 (28 days post-inoculation). CB-17 SCID Mice were assigned into groups using a randomized block design. […] Body weights were measured twice a week for the duration of the study. Tumor size was measured twice weekly in two dimensions using a caliper, and the volume was expressed in cubic millimeters. Animals were euthanized 3 hours post-final dose, with blood and tissues collected for analysis.

[15] = Sprague-Dawley, rat, plasma, po, 10 mg/kg
[16] = male, Sprague-Dawley, rat, plasma, iv, 2 mg/kg

T4 sequence (P05177 whole entry): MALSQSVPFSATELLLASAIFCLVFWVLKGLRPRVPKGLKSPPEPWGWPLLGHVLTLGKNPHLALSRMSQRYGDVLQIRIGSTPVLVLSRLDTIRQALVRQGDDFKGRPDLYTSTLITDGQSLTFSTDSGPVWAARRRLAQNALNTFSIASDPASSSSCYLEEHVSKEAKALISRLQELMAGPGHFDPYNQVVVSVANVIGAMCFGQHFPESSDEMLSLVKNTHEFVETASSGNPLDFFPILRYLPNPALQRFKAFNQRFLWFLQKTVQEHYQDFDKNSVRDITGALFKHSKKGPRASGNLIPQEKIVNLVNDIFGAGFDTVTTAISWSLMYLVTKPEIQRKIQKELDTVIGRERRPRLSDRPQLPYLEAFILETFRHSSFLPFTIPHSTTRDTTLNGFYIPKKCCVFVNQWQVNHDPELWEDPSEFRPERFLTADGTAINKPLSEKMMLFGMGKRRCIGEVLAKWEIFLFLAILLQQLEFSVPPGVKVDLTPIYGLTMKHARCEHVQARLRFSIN
T3 sequence (P08684 whole entry): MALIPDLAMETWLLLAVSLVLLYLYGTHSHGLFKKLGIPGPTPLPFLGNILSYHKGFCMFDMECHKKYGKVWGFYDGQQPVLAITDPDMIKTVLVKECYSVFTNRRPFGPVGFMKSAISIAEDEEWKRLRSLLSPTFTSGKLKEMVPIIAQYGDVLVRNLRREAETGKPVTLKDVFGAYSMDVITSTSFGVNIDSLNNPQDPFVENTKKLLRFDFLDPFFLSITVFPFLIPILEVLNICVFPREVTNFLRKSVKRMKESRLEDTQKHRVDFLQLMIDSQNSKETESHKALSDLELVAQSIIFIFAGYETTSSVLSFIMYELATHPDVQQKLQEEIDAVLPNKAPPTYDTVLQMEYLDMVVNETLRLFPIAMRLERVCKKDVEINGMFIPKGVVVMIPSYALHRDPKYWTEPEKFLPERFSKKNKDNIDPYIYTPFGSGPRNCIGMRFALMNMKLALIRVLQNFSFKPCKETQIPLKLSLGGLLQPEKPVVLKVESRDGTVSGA
T2 sequence (P11712 whole entry): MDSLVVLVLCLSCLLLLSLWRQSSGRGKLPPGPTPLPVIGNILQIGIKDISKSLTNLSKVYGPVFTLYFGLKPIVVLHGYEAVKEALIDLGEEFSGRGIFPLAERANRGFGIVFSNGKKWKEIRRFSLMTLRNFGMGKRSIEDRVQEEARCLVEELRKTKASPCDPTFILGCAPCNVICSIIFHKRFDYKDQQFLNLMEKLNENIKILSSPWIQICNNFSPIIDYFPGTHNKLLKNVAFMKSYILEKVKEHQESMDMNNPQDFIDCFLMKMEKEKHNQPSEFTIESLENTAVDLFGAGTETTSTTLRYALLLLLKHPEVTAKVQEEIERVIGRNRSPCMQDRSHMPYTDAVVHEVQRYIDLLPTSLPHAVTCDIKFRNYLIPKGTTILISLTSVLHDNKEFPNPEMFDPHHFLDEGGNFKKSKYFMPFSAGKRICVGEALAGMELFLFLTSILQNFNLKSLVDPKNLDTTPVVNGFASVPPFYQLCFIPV
T1 sequence (P10635 whole entry): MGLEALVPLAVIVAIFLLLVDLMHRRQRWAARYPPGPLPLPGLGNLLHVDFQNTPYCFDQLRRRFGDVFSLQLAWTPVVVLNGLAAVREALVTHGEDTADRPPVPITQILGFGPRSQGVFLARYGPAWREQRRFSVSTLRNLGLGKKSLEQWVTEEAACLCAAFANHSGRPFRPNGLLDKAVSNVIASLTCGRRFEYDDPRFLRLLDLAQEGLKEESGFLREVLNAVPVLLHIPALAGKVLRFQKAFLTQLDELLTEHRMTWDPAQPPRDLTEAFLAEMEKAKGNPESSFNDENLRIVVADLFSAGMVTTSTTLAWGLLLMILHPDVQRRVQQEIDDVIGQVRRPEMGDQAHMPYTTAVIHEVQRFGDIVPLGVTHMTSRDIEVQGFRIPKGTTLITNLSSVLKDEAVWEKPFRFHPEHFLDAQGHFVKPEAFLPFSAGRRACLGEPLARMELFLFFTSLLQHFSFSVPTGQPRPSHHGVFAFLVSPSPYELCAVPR

CNC[C@@H](O)COc1ccc(Cl)c(-c2nc(-c3c(C)noc3C)c(C)c(N3CC4(CCN(C(=O)OC)CC4)C3)n2)c1 [EZM2302]
CL (plasma clearance) ([1]; Sprague-Dawley rat, IV Bolus 2 mg/kg, 2 mg/kg): 90.5 ± 10.5 mL/min/kg | Fa*Fg (fraction of the dose absorbed from the gastro-intestinal tract) ([1]; Sprague-Dawley rat, PO 10 mg/kg, JVC-PVC rat PK experiment, 10 mg/kg): 81% and 80.7% | AUC(0-inf) [1, 15]: 487 ± 102 ng·h/mL | AUC(0-t) [1, 15]: 453 ± 89.3 ng·h/mL | Cmax [1, 15]: 113 ± 22.4 ng/mL | Tmax [1, 15]: 2 h | bioavailability [1, 15]: 26.2 ± 5.45% | half-life [1, 15]: 6.64 ± 1.41 h | AUC(0-inf) [1, 16]: 372 ± 43.3 ng·h/mL | AUC(0-t) [1, 16]: 352 ± 30.6 ng·h/mL | Vd [1, 16]: 35.6 ± 1.3 L/kg | half-life [1, 16]: 6.21 ± 1.65 h | clearance ([1]; male, Sprague-Dawley, rat, plasma, iv, 2 mg/kg, CL (plasma clearance), Sprague-Dawley rat, IV Bolus 2 mg/kg): 91 mL/min/kg | CYP2D6 inhibition [2]: did not inhibit | CYP2C9 inhibition [3]: did not inhibit | CYP3A4 inhibition [4]: did not inhibit | CYP1A2 inhibition [5]: did not inhibit | IC50 [6]: 12.2 µM | IC50 [7]: > 20 µM | IC50 [8]: > 20 µM | IC50 [9]: > 20 µM | IC50 [10]: > 20 µM | IC50 [11]: > 20 µM | IC50 [12]: > 20 µM | IC50 [13]: > 20 µM | Tumor growth inhibition (TGI) ([14]; 37.5 mg/kg BID oral, 21 days): 45% | increase in unmethylated SmB (SmBme0) in tumor ([14]; 37.5 mg/kg BID oral, day 21): 8 fold | maximal inhibition of aDMA levels in tumor ([14]; 75 mg/kg BID oral, day 21): 65% | Methylated PABP1 in tumor ([14]; 75 mg/kg and higher dose groups, day 21): undetectable in most animals | increase in unmethylated SmB (SmBme0) in tumor ([14]; 150 mg/kg BID oral, day 21): 14 fold | tolerability ([14]; 150 mg/kg and below BID oral, 21 days): well tolerated | Tumor growth inhibition (TGI) ([14]; 300 mg/kg BID oral, 21 days): 63% | body weight ([14]; 300 mg/kg BID oral, 21 days): some body weight loss | weight loss leading to dosing holidays ([14]; 6 of 8 animals in the 300 mg/kg group, holidays of 2 to 8 days): greater than 8% | day of maximal changes in methylation in tumor tissue ([14]; 150 and 300 mg/kg BID, sampled after 2, 4 and 8 days): 4 days
